In patent US4596804A, “Dibenz[b,e]oxepin compounds” (Kyowa Hakko Kogyo Co., Ltd., priority 1983, dated 1986):
Where a name gives a salt, the structure may show the parent alone.

Tests used:
[1] = system: passive cutaneous anaphylaxis (PCA) reaction; experiment: 48-hour homologous PCA (passive cutaneous anaphylaxis) test in rats, antiallergic activity; assay type: in vivo, male Wistar strain rats; conditions: minimum dose with at least one positive among three rats; for minimal effective dose: Rattus norvegicus, po, read-out: Antiallergic Activity, MED (minimum effective dose); for Antiallergic Activity, MED (minimum effective dose): oral
Experimental: The 48-hour homologous PCA (passive cutaneous anaphylaxis) test was employed. As test animals, male Wistar strain rats weighing 180 to 220 g were used for preparation of antiserum and those weighing 120 to 140 g for PCA test.
(A) Preparation of rat antiserum to EWA
Rat antiserum to egg white albumin (EWA) was prepared by the method of Stotland Share [Canad. J. Physiol. Pharmacol. 52, 1114 (1974)] as follows. One mg of EWA was mixed with 20 mg of aluminum hydroxide gel and 0.5 ml of pertussis/diphtheria/tetanus mixed vaccine, and the mixture was subcutaneously injected to each rat through the sole in four portions. After 14 days, blood samples were taken from the carotid artery, and the serum was separated and stored at -80° C. The 48-hour homologous PCA titer of this antiserum was 1:32.
(B) 48-hour homologous PCA test in rats
Three rats for each group were employed for 48-hour homologous PCA test. Rats were passively sensitized by injecting intradermally at the two spots on the shaved back 0.05 ml portions of the antiserum which was diluted 8-fold with physiological saline. After 47 hours, test compounds or the solutions thereof (physiological saline solution or CMC solution) were orally administered to the rats, and after one hour, the animals were injected intraveneously to tail vein 0.5 ml/100 g body weight of saline containing 2 mg of EWA, together with 1% Evans blue. Thirty minutes after antigen challenge, the rats were sacrificed by exanguination, and the skin was cut out, followed by the evaluation of the intensity of PCA reaction by expressing the amounts of dye leaked. The amounts of dye leaked from the blue-stained section were measured by the metod of Katayama, et al [Microbiol. Immunol. 22, 89 (1978)] as follows. A portion of the blue-stained section cut out with scissors was placed in a test tube containing 1 ml of 1N KOH solution, and incubated at 37° C. for 24 hours. 9 ml of a mixture of 0.6N phosphoric acid and acetone (5:13) was added, and the mixture was shaken and subjected to centrifugation at 2500 rpm for 10 minutes. Then, the absorbance of the supernatant liquid at 620 mμ was measured, and the amount of eluted dye was determined by using a calibration curve previously prepared. The average of the measurements for the two positions was taken as the value for each individual, and the inhibition rate for each rat was calculated from the following formula: [formula]
PCA inhibiting activity was evaluated as positive when the inhibition rate was 50% or higher, and the minimum dose required to achieve positive result for at least one among the three rats in each group was taken as the minimum effective dose (MED).

male dd strain mice = experiment: Acute toxicity (minimum lethal dose); assay type: in vivo; conditions: mortality seven days after administration; for Acute Toxicity (MLD) ip: intraperitoneal
Experimental: The present compound was administered orally (p.o. 300 mg/kg) or intraperitoneally (i.p. 100 mg/kg) to several groups of male dd strain mice weighing 19 to 21 g (each group consisting of three mice), and MLD (minimum lethal dose) was determined by observing the mortality seven days after administration.

Compound	minimal effective dose [1] [mg/kg]	Acute Toxicity (MLD) ip (male dd strain mice) [mg/kg]	Acute Toxicity (MLD) PO (male dd strain mice) [mg/kg]	Antiallergic Activity, MED (minimum effective dose) [1] [mg/kg]
CN1CCN(C2c3ccccc3COc3ccc(-c4nnn[nH]4)cc32)CC1 (stereo not drawn) [Compound 6, 11-(4-Methylpiperazino)-2-(5-tetrazolyl)-6,11-dihydrodibenz[b,e]oxepin Na salt]	10	> 100	> 300	–
CN(C)CCSC1c2ccccc2COc2ccc(C#N)cc21 (stereo not drawn) [Compound 10, 11-(N,N--dimethylaminoethyl)thio-6,11-dihydrodibenz[b,e]oxepin-2-carbonitrile]	1	> 100	> 300	–
CCOC(=O)OC(C)OC(=O)c1ccc2c(c1)C(SCCN(C)C)c1ccccc1CO2 (stereo not drawn) [Compound 20, 11-(N,N--dimethylaminoethyl)thio-6,11-dihydrodibenz[b,e]oxepin-2-carboxylic acid (1-ethoxycarbonyloxy)ethyl ester]	0.1	> 100	> 300	–
CN1CCN(C2c3ccccc3COc3ccc(C(=O)O)cc32)CC1 (stereo not drawn) [Compound 3, 11-(4-Methylpiperazino)-6,11-dihydrodibenz[b,e]oxepin-2-carboxylic acid diacetate.2H2 O]	1	> 100	> 300	–
CN(C)CCSC1c2ccccc2COc2ccc(C(=O)O)cc21 (stereo not drawn) [Compound 22, 11-(N,N--dimethylaminoethyl)thio-6,11-dihydrodibenz[b,e]oxepin-2-carboxylic acid hydrochloride.1/2H2 O]	–	> 100	> 300	0.1
CCOC(=O)c1ccc2c(c1)C(OCCN(C)C)c1ccccc1CO2 (stereo not drawn) [Compound 11, 11-(N,N--dimethylaminoethyl)oxy-6,11-dihydrodibenz[b,e]oxepin-2-carboxylic acid ethyl ester]	1	> 100	> 300	–
CN(C)CCNC1c2ccccc2COc2ccc(C(N)=O)cc21 (stereo not drawn) [Compound 14, 11-(N,N--dimethylaminoethyl)amino-6,11-dihydrodibenz[b,e]oxepin-2-carboamide]	1	> 100	300	–
CCOC(=O)OC(C)OC(=O)c1ccc2c(c1)C(N1CCN(C)CC1)c1ccccc1CO2 (stereo not drawn) [Compound 19, 11-(4-Methylpiperazino)-6,11-dihydrodibenz[b,e]oxepin-2-carboxylic acid (1-ethoxycarbonyloxy)ethyl ester]	1	> 100	> 300	–
CCOC(=O)c1ccc2c(c1)C(NC1CN3CCC1CC3)c1ccccc1CO2 (stereo not drawn) [Compound 17, 11-(3-Quinuclidinyl)amino-6,11-dihydrodibenz[b,e]oxepin-2-carboxylic acid ethyl ester]	0.1	> 100	> 300	–
CCOC(=O)c1ccc2c(c1)C(SCCN(C)C)c1ccccc1CO2 (stereo not drawn) [Compound 7, 11-(N,N--dimethylaminoethyl)thio-6,11-dihydrodibenz[b,e]oxepin-2-carboxylic acid ethyl ester]	10	> 100	> 300	–
CN1CCN(C2c3ccccc3COc3ccc(C(N)=O)cc32)CC1 (stereo not drawn) [Compound 4, 11-(4-Methylpiperazino)-6,11-dihydrodibenz[b,e]oxepin-2-carboamide]	10	> 100	> 300	–
CN1CCN(C2c3ccccc3COc3ccc(C(=O)O)cc32)CC1 (stereo not drawn) [Compound 21, 11-(4-Methylpiperazino)-6,11-dihydrodibenz[b,e]oxepin-2-carboxylic acid dihydrochloride.1/4H2 O]	–	> 100	> 300	1
CN(C)CCSC1c2ccccc2COc2ccc(C(=O)O)cc21 (stereo not drawn) [Compound 8, 11-(N,N--dimethylaminoethyl)thio-6,11-dihydrodibenz[b,e]oxepin-2-carboxylic acid acetate]	–	> 100	> 300	10
